Source: the supplement of paper PMC10307832

Assays:
Test in all cases: relative viability (nuclei count vs DMSO), 5 days (fraction); higher = more cells survive
VE-821 + Pictilisib = compound: CS(=O)(=O)c1ccc(-c2cnc(N)c(C(=O)Nc3ccccc3)n2)cc1 [VE-821] + CS(=O)(=O)N1CCN(Cc2cc3nc(-c4cccc5[nH]ncc45)nc(N4CCOCC4)c3s2)CC1 [Pictilisib] (partner 1 µM)
How it was run: (§1)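 Medians of duplicate plates are given as relative viability. That measure is the nuclei count in treated wells divided by the count in vehicle wells. Counts were taken on 4× images of lung cancer cell lines in 1536-well plates, 5 days after pin-tool dosing the day after seeding with one drug alone or a fixed anchor-drug dose plus five library-drug doses (not always all listed) in √10 steps.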

VE-821 + Trametinib = compound: CS(=O)(=O)c1ccc(-c2cnc(N)c(C(=O)Nc3ccccc3)n2)cc1 [VE-821] + CC(=O)Nc1cccc(-n2c(=O)n(C3CC3)c(=O)c3c(Nc4ccc(I)cc4F)n(C)c(=O)c(C)c32)c1 [Trametinib] (partner 0.02 µM)
How it was run: as §1

Vismodegib + Alpelisib = compound: CS(=O)(=O)c1ccc(C(=O)Nc2ccc(Cl)c(-c3ccccn3)c2)c(Cl)c1 [Vismodegib] + Cc1nc(NC(=O)N2CCC[C@H]2C(N)=O)sc1-c1ccnc(C(C)(C)C(F)(F)F)c1 [Alpelisib] (partner 2 µM)
How it was run: as §1

Ruxolitinib + Phenformin = compound: N#CC[C@H](C1CCCC1)n1cc(-c2ncnc3[nH]ccc23)cn1 [Ruxolitinib] + N=C(N)NC(=N)NCCc1ccccc1 [Phenformin] (partner 250 µM)
How it was run: as §1

Row | Cell Line | relative viability (VE-821 + Pictilisib; first compound 0.08 µM) | relative viability (VE-821 + Pictilisib; first compound 0.253 µM) | relative viability (VE-821 + Pictilisib; first compound 0.8 µM) | relative viability (VE-821 + Pictilisib; first compound 2.53 µM) | relative viability (VE-821 + Pictilisib; first compound 8 µM) | relative viability (VE-821 + Trametinib; first compound 0.08 µM) | relative viability (VE-821 + Trametinib; first compound 0.253 µM) | relative viability (VE-821 + Trametinib; first compound 0.8 µM) | relative viability (VE-821 + Trametinib; first compound 2.53 µM) | relative viability (VE-821 + Trametinib; first compound 8 µM) | relative viability (Vismodegib + Alpelisib; first compound 0.08 µM) | relative viability (Vismodegib + Alpelisib; first compound 0.253 µM) | relative viability (Vismodegib + Alpelisib; first compound 0.8 µM) | relative viability (Vismodegib + Alpelisib; first compound 2.53 µM) | relative viability (Vismodegib + Alpelisib; first compound 8 µM) | relative viability (Ruxolitinib + Phenformin; first compound 0.08 µM) | relative viability (Ruxolitinib + Phenformin; first compound 0.253 µM) | relative viability (Ruxolitinib + Phenformin; first compound 0.8 µM) | relative viability (Ruxolitinib + Phenformin; first compound 2.53 µM) | relative viability (Ruxolitinib + Phenformin; first compound 8 µM)
1 | NCI-H1666 | 0.516 | 0.365 | 0.399 | 0.441 | 0.403 | 0.833 | 0.809 | 0.867 | 0.718 | 0.85 | 0.913 | 0.879 | 0.813 | 1.01 | 1.13 | 0.606 | 0.538 | 0.519 | 0.564 | 0.512
2 | NCI-H1734 | 0.453 | 0.47 | 0.433 | 0.527 | 0.36 | 0.718 | 0.732 | 0.651 | 0.723 | 0.587 | 0.651 | 0.586 | 0.661 | 0.63 | 0.719 | 0.382 | 0.342 | 0.472 | 0.36 | 0.432
3 | NCI-H1755 | 0.509 | 0.359 | 0.416 | 0.418 | 0.363 | 0.86 | 0.737 | 0.781 | 0.711 | 0.741 | 0.921 | 0.912 | 0.957 | 0.868 | 0.942 | 0.613 | 0.586 | 0.575 | 0.527 | 0.526
4 | NCI-H1792 | 0.274 | 0.393 | 0.281 | 0.319 | 0.271 | 0.505 | 0.464 | 0.361 | 0.65 | 0.492 | 0.608 | 0.687 | 0.615 | 0.667 | 0.647 | 0.253 | 0.241 | 0.261 | 0.146 | 0.128
5 | NCI-H1793 | 0.356 | 0.312 | 0.273 | 0.431 | 0.425 | 0.605 | 0.408 | – | 0.526 | 0.618 | – | 0.642 | 0.77 | 0.809 | 0.671 | 0.361 | 0.345 | 0.368 | 0.338 | 0.304
6 | NCI-H1915 | 1.06 | 0.785 | 0.982 | 1.07 | 0.652 | 0.331 | 0.288 | 0.281 | 0.349 | 0.303 | 0.996 | 1.09 | 1.07 | 1.03 | 1.12 | 0.375 | 0.41 | 0.384 | 0.358 | 0.343
7 | NCI-H1944 | 0.364 | 0.325 | 0.348 | 0.339 | 0.294 | 0.401 | 0.445 | 0.432 | 0.399 | 0.364 | 0.768 | 0.862 | 0.744 | 0.809 | 0.777 | 0.201 | 0.202 | 0.215 | 0.164 | 0.151
8 | NCI-H1975 | 0.312 | 0.216 | 0.298 | 0.267 | 0.26 | 0.359 | 0.37 | 0.199 | 0.352 | 0.227 | 0.621 | 0.649 | 0.617 | 0.611 | 0.721 | 0.43 | 0.394 | 0.423 | 0.384 | 0.269
9 | NCI-H1993 | 0.861 | 0.821 | 0.822 | 0.874 | 0.862 | 0.534 | 0.604 | 0.61 | 0.505 | 0.502 | 0.684 | 0.655 | 0.713 | 0.687 | 0.629 | 0.497 | 0.526 | 0.473 | 0.572 | 0.51
10 | NCI-H2009 | 0.873 | 0.754 | 0.881 | 0.894 | 0.664 | 0.266 | 0.287 | 0.254 | 0.263 | 0.174 | 1.12 | 1.14 | 1.19 | 1.11 | 1.22 | 0.414 | 0.443 | 0.535 | 0.423 | 0.297
11 | NCI-H2023 | 0.278 | 0.223 | 0.191 | 0.194 | 0.135 | 0.575 | 0.488 | 0.349 | 0.252 | 0.181 | 0.584 | 0.534 | 0.626 | 0.546 | 0.495 | 0.383 | 0.373 | 0.428 | 0.358 | 0.328
12 | NCI-H2085 | 0.461 | 0.446 | 0.485 | 0.483 | 0.409 | 0.507 | 0.463 | 0.269 | – | 0.364 | 0.899 | 0.841 | 0.992 | 0.931 | 0.962 | 0.758 | 0.774 | 0.831 | 0.627 | 0.642
13 | NCI-H2087 | 1.23 | 0.721 | 0.971 | 1.14 | 0.888 | 0.218 | 0.275 | 0.177 | 0.222 | 0.234 | 1.02 | 1.07 | 1.05 | 1 | 0.995 | 0.531 | 0.388 | 0.523 | 0.409 | 0.382
14 | NCI-H2126 | 0.483 | 0.436 | 0.487 | 0.507 | 0.439 | 0.54 | 0.54 | 0.549 | 0.495 | 0.533 | 0.681 | 0.734 | 0.782 | 0.686 | 0.706 | 0.518 | 0.474 | 0.568 | 0.528 | 0.522
15 | NCI-H2170 | 0.319 | 0.289 | 0.332 | 0.4 | 0.293 | 0.977 | 0.865 | 0.947 | 0.819 | 0.629 | 0.836 | 0.814 | 0.872 | 0.836 | 0.794 | 0.382 | 0.391 | 0.417 | 0.374 | 0.351
16 | NCI-H2228 | 0.401 | 0.414 | 0.585 | 0.566 | 0.358 | 0.51 | 0.645 | 0.354 | 0.644 | 0.382 | 0.643 | 0.952 | 0.606 | 0.622 | 0.758 | 0.323 | 0.299 | 0.311 | 0.264 | 0.273
